pIC50: −log10 of the molar value. Read-outs that look alike come from different tables or passages of the source.
Legend:
MDCK cells = assay: MDCK cell permeability test; conditions: for Efllux ratio: Papp(B→A)/Papp(A→B)
[1] = MDCK cell permeability test; conditions: dog, MDCK, 90 min
P-gp = assay: MDCK cell permeability test; conditions: dog, MDCK
in vitro [2] = conditions: rat, microsomes, pH 7.47
in vitro [3] = conditions: dog, microsomes, pH 7.47
[4] = human, microsomes, 1 µM, pH 7.47
in vitro [5] = conditions: monkey, microsomes, pH 7.47
[6] = test system: human prostate carcinoma (PC3) cells; assay: Anti-proliferation test (MTT colorimetry); format: cell-based; conditions: PC-3, PC3, 72 h
Protocol: (§1) The compound of formula 1 (prepared in embodiment 1), and the compound of formula 2 (prepared in embodiment 2) are given at different concentrations to human hepatocellular carcinoma (HepG2) cells, human prostate carcinoma (PC3) cells, human cervical carcinoma (HeLa) cells, human breast adenocarcinoma (MCF-7) cells, and human leukemia (K562) cells; all the groups are incubated 72 h in an incubator containing 5% of CO2 at 37° C., and then inhabitation ratios of the compounds to the tumor cells are measured by using methyl thiazolyl tetrazolium (MTT) colorimetry, and results are shown in table 1.

[7] = test system: human hepatocellular carcinoma (HepG2) cells; assay: Anti-proliferation test (MTT colorimetry); format: cell-based; conditions: HepG2, 72 h
Protocol: as §1

[8] = test system: human cervical carcinoma (HeLa) cells; assay: Anti-proliferation test (MTT colorimetry); format: cell-based; conditions: 72 h
Protocol: as §1

[9] = test system: human breast adenocarcinoma (MCF-7) cells; assay: Anti-proliferation test (MTT colorimetry); format: cell-based; conditions: MCF7, MCF-7, 72 h
Protocol: as §1

[10] = test system: human leukemia (K562) cells; assay: Anti-proliferation test (MTT colorimetry); format: cell-based; conditions: K562, 72 h
Protocol: as §1

[11] = dog, microsomes, 1 µM, pH 7.47

PGP substrate judgment (MDCK cells; MDCK cells): is not the PGP substrate and No
Permeability Judgment (MDCK cells; MDCK cells): moderate permeability
Efllux ratio (MDCK cells; 2nd line of the compound (condition not given)): 1.2
Efllux ratio (MDCK cells; 3rd line of the compound (condition not given)): 1.1
Papp A→B at 90 min ([1]; Apparent permeability coefficient A→B, 1st line of the compound (condition not given)): 0.6 ×10⁻⁶ cm/s
Papp A→B at 90 min ([1]; Apparent permeability coefficient A→B, 2nd line of the compound (condition not given)): 16 ×10⁻⁶ cm/s
Papp A→B at 90 min, 10 µM ([1]; Apparent permeability coefficient A→B, 3rd line of the compound (condition not given)): 18 ×10⁻⁶ cm/s
Papp B→A at 90 min ([1]; Apparent permeability coefficient B→A, 1st line of the compound (condition not given)): 0.8 ×10⁻⁶ cm/s
Papp B→A at 90 min ([1]; Apparent permeability coefficient B→A, 2nd line of the compound (condition not given)): 18.9 ×10⁻⁶ cm/s
Papp B→A at 90 min, 10 µM ([1]; Apparent permeability coefficient B→A, 3rd line of the compound (condition not given)): 19.6 ×10⁻⁶ cm/s
recovery at 90 min ([1]; Recovery rate A→B, 2nd line of the compound (condition not given)): 69.4%
recovery at 90 min, 10 µM ([1]; Recovery rate A→B, 3rd line of the compound (condition not given)): 62.3%
recovery at 90 min ([1]; Recovery rate A→B, 1st line of the compound (condition not given; method: without / with 10 μM cyclosporine A)): 93.8%
recovery at 90 min ([1]; Recovery rate B→A, 1st line of the compound (condition not given)): 102%
recovery at 90 min ([1]; Recovery rate B→A, 2nd line of the compound (condition not given)): 85.4%
recovery at 90 min, 10 µM ([1]; Recovery rate B→A, 3rd line of the compound (condition not given)): 84.6%
efflux ratio at 90 min (P-gp): 1.2
half-life at 1 µM (in vitro [2]): 56.8 min
microsomal CLint at 1 µM (in vitro [2]): 24.4 µL/min/mg
half-life at 1 µM (in vitro [3]): 24.7 min
microsomal CLint at 1 µM (in vitro [3]): 56 µL/min/mg
Remainder ([4]; 0 h): 100.00%
Remainder ([4]; 10 min): 78.76%
Remainder ([4]; 0.5 h): 56.18%
Remainder ([4]; 1.5 h): 23.87%
half-life at 1 µM (in vitro [5]): 21.6 min
microsomal CLint at 1 µM (in vitro [5]): 64.2 µL/min/mg
pIC50 [6]: 7.72
pIC50 [7]: 7.59
pIC50 [8]: 8.13
pIC50 [9]: 8.49
pIC50 [10]: 8.15
Remainder ([11]; 0 h): 100.00%
Remainder ([11]; 10 min): 74.20%
Remainder ([11]; 0.5 h): 38.61%
Remainder ([11]; 1.5 h): 7.93%
Structure (SMILES): CCOc1cccc(Nc2nn(C)c3c2Cc2cc(OCC)c(OCC(N)=O)cc2-3)c1 [LL-01]

— patent publication US10059674B2, “Design, synthesis, and biological evaluation of 1-methyl-1, 4-dihyrdoindeno[1,2-C]pyrazole analogues as potential anticaner agents targeting tubulin colchicine binding site” (ACT PHARMA CO., LTD., priority 2016, dated 2018)
